One series deals with Caco-2 cells. The conditions noted are these: ref Tian et al., 2009; cited from earlier work.
Series [1] in a line: MTT cell viability assay, HaCaT. It counts as cell-based, human. The conditions noted are these: human, HaCaT keratinocyte cells, compared to control. The protocol:
(§1) MRC-5 human lung fibroblast cells (Sigma-Aldrich, St. Louis, MO, United States) were cultured in MEM, while HaCaT human keratinocyte cells (ATCC, Manassas, VA, United States) and Caco-2 human intestinal epithelial cells (American Type Culture Collection, LGC Standards S.L.U., Spain) were cultured in DMEM. Both medium were supplemented with 10% of FBS and 1% of penicillin/streptomycin. Cells were incubated in 75 cm^2 cell culture flasks, which were placed in an incubator at 37°C, with a humidified atmosphere of 5% CO2. For the experiments, cells were seeded for 24 h in 96-well plates. MRC-5 and Caco-2 were seeded at 20,000 cells/well and HaCaT were seeded at 15,000 cells/well.
(§2) Toxicity of compounds, at 50 and 100 μM, was assessed against non-cancerous cell lines through the MTT assay after 24 h of incubation, following the protocol described in [Macedo et al., (2023)], with slight modifications. Thus, cells were exposed to MTT for 2 h, in the case of MRC-5, and 1 h 30 min, in the case of HaCaT. This assay was also performed to evaluate the response of Caco-2 cells to compounds at concentrations from 125 to 1,000 μM during the permeability assay, these cells being incubated for 4 h with the samples and exposed to MTT for 2 h. Results were expressed as percentage of viability compared to the control and correspond to the mean of, at least, three independent experiments performed in triplicate.
Background: Formazan colour is commonly taken as a measure of viable cells.

Series [2] is described as follows: MTT cell viability assay, MRC-5. It counts as cell-based, human. The following applies: human, MRC-5 lung fibroblast cells, MRC-5, 100 μM, compared to control. Here is the method:
as §1, §2

In series [3] the test system is Caco-2 human intestinal epithelial cells. As to the kind of experiment: MTT cell viability assay, Caco-2 (before permeability assay). It counts as cell-based. The following applies: Caco-2, 4 h, concentrations until 1,000 μM. Here is the method:
as §1, §2
The ability of naringenin 8-sulphonate to cross biological barriers was tested using a Caco-2 permeability model. The first step for this assay was to test the possible impact of high concentrations of samples in Caco-2 cells during the time of the experiment. Thus, an MTT assay, using concentrations of naringenin, naringenin 4’-O-sulphate and naringenin 8-sulphonate until 1,000 μM, was performed.

A short description of series [4]: Caco-2 permeability assay (Transwell). The following applies: human; Caco-2 permeability model, 1,000 μM, 240 min time point; read-out: P app, experimental. It counts as in vitro ADME, human. The protocol: (§3) Caco-2 cells were seeded for 21 days at 112,000 cells/well in Corning® 3460 Transwell® 12 mm Polyester Membrane Inserts (Corning Incorporated, ME, United States). At every other day, culture medium was replaced and the transepithelial electrical resistance was measured to ensure values above 400 ohms until the day of the assay, to guarantee membrane integrity. For quality control purposes, Lucifer Yellow was used at 100 μg mL^-1 in the day of the assay. Briefly, one of the inserts was incubated with Lucifer Yellow during 1 h and, after that, its concentration was measured in the basolateral chamber, based on fluorescence intensity (λexc = 485 nm and λem = 535 nm). Lucifer Yellow passage, from the apical to the basolateral chamber equal or lower than 3% was considered indicative of a well-defined cell barrier phenotypically translated as good membrane integrity.
(§4) Treatments were applied in the transwells apical chamber and the basolateral chamber was filled with HBSS with calcium (1.26 mM) and magnesium (0.81 mM). At specific timepoints, namely 10, 20, 30, 60, 90, 120 and 180 min, half of the volume from the basolateral chamber was collected and replaced by the same volume of HBSS. In the last time point, at 240 min, content of both apical and basolateral compartments was collected to calculate the final mass balance. Transwells were maintained in agitation at 50 rpm, 37°C and 5% CO2 between the timepoints.
(§5) Concentration of each analyte in the different compartments was determined by HPLC-DAD using a Gilson Medical Electronics HPLC system (Villiers le Bel, France), with a Spherisorb ODS® (250 × 4.6 mm, 5 μm particle size, 100 Å pore size) column (PSS831915, Waters, Dublin, Ireland). Elution was performed for 7 min, with a flow rate of 900 μL min^-1. A mixture of methanol: water-formic acid (1%) was used as mobile phase, in a proportion of 65:35 for naringenin and 47:53 for naringenin 4’-O-sulphate and naringenin 8-sulphonate. Quantifications were performed at 285 nm.
(§6) Results were obtained from three independent experiments and each sample was analysed in triplicate. Apparent permeability (P app ) coefficient (cm s^-1) was calculated based on the equation P app = ΔQ/Δt×(1/(A×C0)), where ΔQ/Δt represents the amount of compound over time (mol s^-1), A is the monolayer area (cm^2) and C0 (mol mL^-1) is the initial drug concentration of the apical side ([Nait et al., 2009]; [Silva et al., 2020]).

The subject of a further series is Caco-2 cell monolayers. As to the kind of experiment: Caco-2 permeability assay (Transwell). Format: in vitro ADME, human. The following applies: for P app, experimental: Caco-2 permeability model, 1,000 μM, 240 min time point; for percentage of the amount placed in the apical chamber found in the basolateral chamber: after 240 min, 1,000 μM, apical to basolateral; for P app class, experimental: classification ref Karakucuk et al., 2021. Here is the method: as §3, §4, §5, §6
Background: Caco-2 cells form a polarised layer with tight junctions and transporters.

Series [5] has as its system Caco-2 human intestinal epithelial cells. As to the kind of experiment: Alkaline comet assay (DNA damage), Caco-2. The following applies: for percentage of DNA in tail, first quartile / percentage of DNA in tail, third quartile / percentage of DNA in tail, median: Caco-2, 100 μM, 24 h; for percentage of DNA in tail, median: negative control 20.98; for genotoxicity: DNA fragmentation: Caco-2, alkaline comet assay, 100 μM.
Experimental: Caco-2 cells were incubated for 24 h in 12 well plates at a density of 350,000 cells/well. After this, they were incubated with each sample and negative control for 24 h and collected using 500 μL of trypsin (0.25%)-ethylenediaminetetraacetic acid (EDTA) (0.038%), which was then inactivated with 1 mL of Hanks’ Balanced Salt Solution (HBSS). The cell suspension was centrifuged at 1,200 rpm during 8 min at room temperature, supernatant was discarded, and cells were resuspended in 100 μL of HBSS.
Electrophoresis was carried out to evaluate the extent of DNA fragmentation. For this, agarose-coated slides were prepared using an 1% agarose solution. A volume of 20 μL from the cell suspension was involved in 170 μL of 1% low gelling temperature agarose solution and applied to the slides, which were then placed at 4°C until solidification. Slides were submerged in a lysis solution (2.5 M NaCl, 0.1 M EDTA, 10 mM Tris-HCl, pH 10) with 1% Triton-X 100, at 4°C and sheltered from the light, for 105 min. After this, slides were submerged in the electrophoresis buffer (300 mM NaOH, 1 mM EDTA, pH 13) for 40 min. A Sub-Cell GT Horizontal Electrophoresis System 15 × 15 cm tray (Bio-Rad Laboratories Lda, Oeiras, Portugal) was used to run the electrophoresis at 25 V and 240 mA during 30 min in the dark. In the end of the electrophoresis, slides were submerged for three times in a neutralization solution (0.4 M Tris-HCl, pH 7.5), during 5 min each.
For the fluorescence microscopy analysis, DAPI was added for 15 min at 0.5 μg mL^-1, the slides being washed once with HBSS in the end. Images were acquired using a Nikon Eclipse Ts2R-FL inverted microscope with a Retiga R1 camera (01-RET-R1-RM) and CFI Plan Fluor ×10 DIC objective. DNA damage was calculated using the AutoComet algorithm ([Barbe et al., 2023]) by dividing the amount of fluorescence signal correspondent to the DNA content in the comet’s tail by the signal correspondent to the total DNA in the comet. MMS 500 μM, incubated for 30 min, was used as positive control for DNA fragmentation and consequent DNA tail formation.
Comet assay was performed to evaluate possible genotoxicity of compounds. […] The percentage of DNA in the tail may be used as a parameter to evaluate the damage on DNA ([Clementi et al., 2021]).

For series [6], the system named is HaCaT human keratinocyte cells. As to the kind of experiment: MTT cell viability assay, HaCaT. It counts as cell-based. The following applies: 24 h, compared to control. Here is the method:
as §1, §2

The test system of series [7] is MRC-5 human lung fibroblast cells. As to the kind of experiment: MTT cell viability assay, MRC-5. Format: cell-based. The conditions noted are these: 24 h; for cell viability: compared to control. Here is the method: as §1, §2
Another series deals with HT29 cells. On the set-up: method as in Baranowska et al., 2021. The conditions noted are these: concentrations up to 100 μM; ref Baranowska et al., 2021; cited from earlier work.
For the next series, the system named is MCF-7. On the set-up: method as in Kocyigit et al., 2016. The following applies: ref Kocyigit et al., 2016; cited from earlier work.
A further series relates to HT-29. On the set-up: method as in Kocyigit et al., 2016. The following applies: ref Kocyigit et al., 2016; cited from earlier work.
The next series has as its system PC-12. On the set-up: method as in Kocyigit et al., 2016. The following applies: ref Kocyigit et al., 2016; cited from earlier work.
The next series relates to L-929. On the set-up: method as in Kocyigit et al., 2016. The following applies: ref Kocyigit et al., 2016; cited from earlier work.
The test system of series [8] is human umbilical vein endothelial cells (HUVECs). On the set-up: method as in earlier work. The following applies: ref Çeker et al., 2019; cited from earlier work.

Some results are limits rather than exact numbers.

As for `O=c1c(O)c(-c2ccc(O)cc2O)oc2cc(O)cc(O)c12` [morin], in the series with Caco-2 cells, the “reported P app” value is 0.62 ×10⁻⁶ cm/s.

Consider `O=c1c(O)c(-c2cc(O)c(O)c(O)c2)oc2cc(O)cc(O)c12` [myricetin], for which the “reported P app” value in the series on Caco-2 cells is 1.7 ×10⁻⁶ cm/s.

For `O=C1C[C@@H](c2ccc(OS(=O)(=O)O)cc2)Oc2cc(O)cc(O)c21` [naringenin 4’-O-sulphate], in [1], the viability (usually the share of living cells, or the viability signal relative to a control) at 24 h, 50 µM turned out to be 95.4% and the viability at 24 h, 100 µM was found to be 89.2%. The viability at 24 h, 100 µM in [2] was determined as 81.5%. For the same compound, the “changes on cell viability” value in series [3] was “no significant changes on cell viability”. The Papp A→B at 240 min, 1000 μM in [4] was found to be 3.45 ×10⁻⁶ cm/s. Moreover, in the series on Caco-2 cell monolayers, the “P app, experimental” value was found to be 3.45 ×10⁻⁶ cm/s; the “percentage of the amount placed in the apical chamber found in the basolateral chamber” value (“percentage of the amount placed” below) was found to be 12.73%; the “P app class, experimental” value was “→ (moderate P app)”. In [5], the “percentage of DNA in tail, first quartile” value (“percentage … first quartile” for short) worked out at 4.33%; the “percentage of DNA in tail, third quartile” value (“percentage … third quartile” below) was found to be 33.90%; the “percentage of DNA in tail, median” value was determined as 15.89%; the “genotoxicity: DNA fragmentation” value is listed as “did not”.

In the case of `O=C1C[C@@H](c2ccc(O)cc2)Oc2c1c(O)cc(O)c2S(=O)(=O)O` [naringenin 8-sulphonate], the cell viability (usually a read-out of living cells in per cent, often relative to untreated cells) in series [6] (50 μM) was determined as 92.99%. In addition, in [6] (100 μM), the cell viability was found to be 91.95%. The same compound had a cell viability in series [7] (MRC-5, 50 μM) of 94.77%. The cell viability in series [7] (MRC-5, 100 μM) worked out at 94.71%. For the same compound, in series [3], the “changes on cell viability” value is “no significant changes on cell viability”. In the series with Caco-2 cell monolayers, the “P app, experimental” value was determined as 2.68 ×10⁻⁶ cm/s; the “percentage of the amount placed” value came to 10.41%; the “P app class, experimental” value is listed as “→ (moderate P app)”. In addition, in series [5], the “percentage … first quartile” value came out at 7.25%; the “percentage … third quartile” value is given as 66.61%; the “percentage of DNA in tail, median” value worked out at 31.18%; the “genotoxicity: DNA fragmentation” value is listed as “caused significant DNA fragmentation”.

In series [1], `O=C1C[C@@H](c2ccc(O)cc2)Oc2cc(O)cc(O)c21` [naringenin] registered a viability at 24 h, 50 µM of 93.2% and a viability at 24 h, 100 µM of 91.9%. The “effect on cell viability” value in series [7] (MRC-5, 50 and 100 μM) is “did not elicit any significant decrease”. In addition, the “changes on cell viability” value in series [3] is listed as “no significant changes on cell viability”. In [4], the Papp A→B at 240 min, 1000 μM was found to be 8.29 ×10⁻⁶ cm/s. Moreover, in the series with Caco-2 cell monolayers, the “P app, experimental” value worked out at 8.29 ×10⁻⁶ cm/s; the “percentage of the amount placed” value amounted to 32.01%; the “P app class, experimental” value is listed as “→ (moderate P app)”. Moreover, the “impact on DNA integrity” value with HT29 cells is “no impact on DNA integrity”. Besides, the DNA damage result in the series on MCF-7 was “able to cause DNA damage”. Also, the DNA damage entry in the series on HT-29 is given as “able to cause DNA damage”. In the series with PC-12, the DNA damage result was “able to cause DNA damage”. Moreover, the DNA damage result in the series with L-929 is on record as “able to cause DNA damage”. For the same compound, in series [8], the “concentration causing the best antigenotoxic effects” value is 8 µM and the “concentrations causing DNA damage” value was at least 50 µM. Further, in series [5], the “percentage … first quartile” value came to 14.24%; the “percentage … third quartile” value is on record as 63.36%; the “percentage of DNA in tail, median” value is on record as 33.07%; the “genotoxicity: DNA fragmentation” value is “caused significant DNA fragmentation”.
